Tests used:
[1] = xn = mol fraction of the nth substance listed; details: 101 kPa, Liquid, Vibrating tube method
[2] = 101 kPa, Liquid, Vibrating tube method

CC(N)=O [ethanamide] + O
mass density [kg/m3], [1]
Details | 278.15 K | 288.15 K | 298.15 K | 308.15 K | 323.15 K
x1 = 0.0045 | 1001.13 | 1000.13 | 997.95 | 994.84 | 988.72
x1 = 0.00696 | 1001.77 | 1000.68 | 998.45 | 995.28 | 989.09
x1 = 0.01255 | 1003.21 | 1001.93 | 999.55 | 996.27 | 989.94
x1 = 0.0221 | 1005.68 | 1004.08 | 1001.45 | 997.97 | 991.4
x1 = 0.03704 | 1009.47 | 1007.37 | 1004.39 | 1000.6 | 993.65
x1 = 0.04992 | 1012.61 | 1010.12 | 1006.82 | 1002.79 | 995.48
x1 = 0.0607 | 1015.11 | 1012.3 | 1008.75 | 1004.54 | 996.95
x1 = 0.07958 | 1019.24 | 1015.92 | 1011.95 | 1007.37 | 999.36
x1 = 0.09463 | 1022.32 | 1018.65 | 1014.35 | 1009.49 | 1001.16
x1 = 0.1128 | 1025.82 | 1021.71 | 1017.06 | 1011.89 | 1003.22
x1 = 0.1325 | 1029.34 | 1024.81 | 1019.79 | 1014.32 | 1005.31
x1 = 0.159 | 1033.54 | 1028.5 | 1023.07 | 1017.25 | 1007.78
x1 = 0.1991 | 1038.57 | 1032.99 | 1027.09 | 1020.83 | 1010.87
x1 = 0.2503 | 1043.75 | 1037.61 | 1031.18 | 1024.52 | 1013.96
x1 = 0.3039 | – | 1041.06 | 1034.29 | 1027.28 | 1016.34
x1 = 0.3456 | – | 1043.19 | 1036.18 | 1028.97 | 1017.76
x1 = 0.3875 | – | – | 1037.52 | 1030.2 | 1018.81

O [water]
[2]
Details | mass density [kg/m3]
278.15 K | 999.96
323.15 K | 988.03

O [water] + CC(N)=O
[1], x2 = 0
Details | mass density [kg/m3]
278.15 K | 999.96
323.15 K | 988.03

Source: the NIST ThermoML archive (doi:10.1016/j.jct.2019.06.028)
